Key:
human GnRH receptor = molecular target: T1, human GnRH receptor (Homo sapiens, UniProt P30968); experiment: IP-One HTRF assay with buserelin stimulation; type: cell-based; details: CHO cells stably expressing human GnRH receptor; buserelin at EC80; read-out: Potency in IP-One HTRF assay with buserelin (at EC80) stimulation, given as IC50
T1 construct: host or cells: CHO cells stably expressing human GnRH receptor (line established by Prof. Thomas Gudermann)
T1 sequence (P30968 1-328): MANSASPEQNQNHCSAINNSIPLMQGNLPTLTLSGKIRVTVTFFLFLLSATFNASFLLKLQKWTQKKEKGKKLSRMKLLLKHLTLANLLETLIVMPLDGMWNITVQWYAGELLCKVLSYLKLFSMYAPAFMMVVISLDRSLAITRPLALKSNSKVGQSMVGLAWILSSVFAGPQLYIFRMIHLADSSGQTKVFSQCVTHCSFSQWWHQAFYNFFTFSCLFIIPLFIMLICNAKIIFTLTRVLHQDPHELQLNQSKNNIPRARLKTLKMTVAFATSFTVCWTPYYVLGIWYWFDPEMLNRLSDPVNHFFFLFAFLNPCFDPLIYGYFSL
Text: By using homogenous time-resolved fluorescence resonance energy transfer (HTRF), the generation of one component of the GnRH-R signalling cascade can be measured. After stimulation of CHO cells stably expressing human GnRH receptor (established by Prof. Thomas Gudermann, currently University of Marburg, Germany; supplied as frozen cell aliquots by Cell Culture Services, Hamburg, Germany) with the EC80 of the GnRH agonist buserelin, Gq protein-coupled receptor signalling cascade is activated resulting in PLC-dependent cleavage of PIP2 to Inositol-1,4,5-triphosphate (IP3) and Diacylglycerol. The second messenger IP3 is degraded intracellularly to myo-inositol. Inhibition of the final degradation step from Inositol-1-phosphate (IP1) to myo-inositol by addition of lithium chloride leads to accumulation of IP1 in the cells. In cell lysates, IP1 can be detected via an antibody-based HTRF detection technology, where IP1 can displace the FRET acceptor IP1-d2 from binding by Terbium-labelled anti-IP1 antibody as donor resulting in a signal decrease. Compounds were tested for their capability of inhibiting GnRH-R activation by buserelin. For all IP-One HTRF® assays reagents of Cisbio Bioassays (IP-One Tb Jumbo kit, #62IPAPEJ; Cisbio Bioassays, Bagnols sur Cèze Cedex, France) were used.
For the assay, frozen cell aliquots were thawed and a cell suspension (3.33×10^6 cells/mL) containing IP1-d2 (dilution 1:40) was prepared and incubated at 37° C. After 1 h 3 μl of the cell suspension were added to 50 nl of a 100-fold concentrated solution of the test compound in DMSO pre-dispensed in a well of a white low-volume 384-well microtiter plate (Greiner Bio-One, Frickenhausen, Germany). […] Plates were incubated for 1 h at 37° C. and 5% carbon dioxide before the cells were lysed by adding 3 μl Terbium-labelled anti-IP1 antibody (1:40) diluted in Conjugate & Lysis buffer as supplied with the kit. After an incubation for 1 h at 22° C. to enable complete cell lysis and antibody binding to free IP1 or IP1-d2, plates were measured in an HTRF reader, e.g. a RUBYstar, PHERAstar (both BMG Labtechnologies, Offenburg, Germany) or a Viewlux (PerkinElmer LAS, Rodgau-Jügesheim, Germany).
From the fluorescence emissions at 665 nm (FRET) and at 620 nm (background signal of Terbium-antibody), the ratio (emission at 665 nm divided by emission at 620 nm) was calculated and the data were normalized (reaction without test compound=0% inhibition; all other assay components except agonist=100% inhibition). On the same microtiter plate, compounds were tested at 10 different concentrations in the range of 20 μM to 1 nM (20 μM, 6.7 μM, 2.2 μM, 0.74 μM, 0.25 μM, 82 nM, 27 nM, 9.2 nM, 3.1 nM and 1 nM; dilution series prepared before the assay at the level of the 100-fold conc. stock solutions by serial 1:3 dilutions in 100% DMSO) in duplicate values for each concentration. By using an in-house software, the IC50 values were calculated by a 4 parameter fit.
Within the meaning of the present invention the antagonist activity is reflected by the ability of a compound of the invention to antagonize human GnRH receptor stimulation in IP-One HTRF® assay at least three times the standard deviation over the background level.

human GnRHR = molecular target: T2, human GnRHR (Homo sapiens, UniProt P30968); experiment: Tag-Lite receptor binding assay; details: Hek293 cells transiently transfected with human GnRHR; displacement of green-labelled GnRHR binding peptide; read-out: Potency in receptor binding assay using TAG-LITE technology, given as IC50
T2 construct: own knowledge: Tag-lite cells usually carry an N-terminal SNAP-tag fusion; host or cells: Hek293 cells, transiently transfected, supplied frozen
T2 sequence (P30968 1-328): T1 sequence (P30968 1-328)
Text: 2.2. Tag-Lite® Receptor Binding Assay
This binding assay is based on the fluorescence resonance energy transfer between fluorescence donor labelled human GnRHR and a green-labelled GnRHR binding peptide. Compounds interfering with the ligand binding side of the human GnRHR will replace the labelled peptide resulting in a signal decrease. The assay principle was established by Cisbio Bioassays (Bagnols-sur-Cèze Cedex, France) and further details are available on their homepage.
The assay procedure was further optimized for use in-house with reduced assay volumes. Frozen Hek293 cells, transiently transfected with human GnRHR and Terbium-labelling of the receptor, were supplied by Cisbio Bioassays as well as Tag-Lite buffer and green-labelled GnRHR binding peptide. Cells were thawed and transferred to cold Tag-Lite buffer. A volume of 8 μl of this cell suspension were added to 100 nl of a 160-fold concentrated solution of the test compound in DMSO pre-dispensed in a well of a white low-volume 384-well microtiter plate (Greiner Bio-One, Frickenhausen, Germany). The mixture was incubated for 5 min at room temperature. In the next step either 4 μl Tag-Lite buffer or as control 4 μl of an exceeding amount unlabelled binding peptide in Tag-Lite buffer were transferred to the mixture. The green-labelled GnRHR binding peptide was added in a final step at EC50 in a volume of 4 μl Tag-Lite buffer. After an incubation of 1 h at room temperature plates were measured in a microplate reader, e.g. a PHERAstar (BMG Labtechnologies, Offenburg, Germany) by using a specific optic module.
A ratio from the fluorescence emissions at 520 nm (green fluorescence) and at 490 nm (background signal of Terbium-labelled GnRHR) was calculated and the data were normalized (reaction without test compound=0% inhibition of binding of green-labelled peptide; reaction without test compound with exceeding amount unlabelled binding peptide=100% inhibition of binding of green-labelled peptide). On the same microtiter plate, compounds were tested at 10 different concentrations in the range of 12.5 μM to 0.64 nM (12.5 μM, 4.2 μM, 1.4 μM, 0.46 μM, 0.15 μM, 51 nM, 17 nM, 5.7 nM, 1.9 nM and 0.64 nM; dilution series prepared before the assay at the level of the 160-fold conc. stock solutions by serial 1:3 dilutions in 100% DMSO) in duplicate values for each concentration. By using an in-house software, the IC50 values were calculated by a 4 parameter fit.

[1] = In vivo pharmacokinetics in rats; details: Wistar, rat, plasma, po, male rats, 2 mg/kg p.o.
Protocol: 2.4 In Vivo Pharmacokinetics in Rats
For in vivo pharmacokinetic experiments test compounds were administered to male Wistar rats intravenously at a dose of 0.5 mg/kg and intragastral at a dose of 2 mg/kg formulated as solutions using solubilizers such as PEG400 or Solutol in well-tolerated amounts.
For pharmacokinetics after intravenous administration test compounds were given as i.v. bolus and blood samples were taken at 2 min, 8 min, 15 min, 30 min, 45 min, 1 h, 2 h, 4 h, 7 h and 24 h after dosing. […] For pharmacokinetics after intragastral administration test compounds were given intragastral to fasted rats and blood samples were taken at 8 min, 15 min, 30 min, 45 min, 1 h, 2 h, 4 h, 7 h and 24 h after dosing. […] Blood was collected into Lithium-Heparintubes (Monovetten®, Sarstedt) and centrifuged for 15 min at 3000 rpm. An aliquot of 100 μL from the supernatant (plasma) was taken and precipitated by addition of 400 μL cold acetonitril and frozen at −20° C. over night. Samples were subsequently thawed and centrifuged at 3000 rpm, 4° C. for 20 minutes. Aliquots of the supernatants were taken for analytical testing using an Agilent 1200 HPLC-system with LCMS/MS detection. PK parameters were calculated by non-compartmental analysis using a PK calculation software.
PK parameters derived from concentration-time profiles after i.v.: CLplasma: Total plasma clearance of test compound (in L/kg/h); CLblood: Total blood clearance of test compound: CLplasma*Cp/Cb (in L/kg/h) with Cp/Cb being the ratio of concentrations in plasma and blood. PK parameters calculated from concentration time profiles after i.g.: Cmax: Maximal plasma concentration (in mg/L); Cmaxnorm: Cmax divided by the administered dose (in kg/L); Tmax: Time point at which Cmax was observed (in h). Parameters calculated from both, i.v. and i.g. concentration-time profiles: AUCnorm: Area under the concentration-time curve from t=0 h to infinity (extrapolated) divided by the administered dose (in kg*h/L); AUC(0−tlast)norm: Area under the concentration-time curve from t=0 h to the last time point for which plasma concentrations could be measured divided by the administered dose (in kg*h/L); t½: terminal half-life (in h); F: oral bioavailability: AUCnorm after intragastral administration divided by AUCnorm after intravenous administration (in %).

N#Cc1ccc(S(=O)(=O)N2c3ccc(C(=O)NCc4ncc(C(F)(F)F)cc4Cl)cc3C3(CCS(=O)(=O)CC3)C2C2CC2)cc1 (racemic) [Example 8, N-{[3-chloro-5-(trifluoromethyl)pyridin-2-yl]methyl}-1-[(4-cyanophenyl)sulfonyl]-2-cyclopropyl-1,2,2′,3′,5′,6′-hexahydrospiro[indole-3,4′-thiopyran]-5-carboxamide 1′,1′-dioxide]
IC50 (human GnRH receptor): 22 nM | IC50 (human GnRHR): 21.7 nM

O=C(NCc1ncc(C(F)(F)F)cc1Cl)c1ccc2c(c1)C1(CCS(=O)(=O)CC1)C(C1CC1)N2S(=O)(=O)c1cccc(OC(F)F)c1 (racemic) [Example 14, N-{[3-chloro-5-(trifluoromethyl)pyridin-2-yl]methyl}-2-cyclopropyl-1-{[3-(difluoromethoxy)phenyl]sulfonyl}-1,2,2′,3′,5′,6′-hexahydrospiro[indole-3,4′-thiopyran]-5-carboxamide 1′,1′-dioxide]
IC50 (human GnRH receptor): 82 nM | IC50 (human GnRHR): 78.7 nM

O=C(NCc1ncc(C(F)(F)F)cc1F)c1ccc2c(c1)C1(CCS(=O)(=O)CC1)C(C1CC1)N2S(=O)(=O)c1ccc(Cl)cc1 (racemic) [Example 18, 1-[(4-chlorophenyl)sulfonyl]-2-cyclopropyl-N-{[3-fluoro-5-(trifluoromethyl)pyridin-2-yl]methyl}-1,2,2′,3′,5′,6′-hexahydrospiro[indole-3,4′-thiopyran]-5-carboxamide 1′,1′-dioxide]
IC50 (human GnRH receptor): 65 nM

O=C(NCc1ncc(C(F)(F)F)cc1Cl)c1ccc2c(c1)C1(CCS(=O)(=O)CC1)C(C1CC1)N2S(=O)(=O)c1ccc(Cl)cc1 (racemic) [Example 19, 1-[(4-chlorophenyl)sulfonyl]-N-{[3-chloro-5-(trifluoromethyl)pyridin-2-yl]methyl}-2-cyclopropyl-1,2,2′,3′,5′,6′-hexahydrospiro[indole-3,4′-thiopyran]-5-carboxamide 1′,1′-dioxide]
IC50 (human GnRH receptor): 31 nM

O=C(NCc1ncc(C(F)(F)F)cc1F)c1ccc2c(c1)C1(CCS(=O)(=O)CC1)[C@@H](C1CC1)N2S(=O)(=O)c1ccc(F)cc1 (single isomer, unassigned) [Example 1.2]
IC50 (human GnRH receptor): 6990 nM

N#Cc1ccc(S(=O)(=O)N2c3ccc(C(=O)NCc4ncc(C(F)(F)F)cc4F)cc3C3(CCS(=O)(=O)CC3)C2C2CC2)cc1 (single isomer, unassigned) [Example 7.2]
IC50 (human GnRH receptor): 57 nM

N#Cc1ccc(S(=O)(=O)N2c3ccc(C(=O)NCc4ncc(C(F)(F)F)cc4Cl)cc3C3(CCS(=O)(=O)CC3)[C@@H]2C2CC2)cc1 (single isomer, unassigned) [Example 8.1]
IC50 (human GnRH receptor): 10 nM | half-life [1]: 5 h | bioavailability ([1]; AUCnorm intragastral / AUCnorm i.v. (0.5 mg/kg), read-out: F (oral bioavailability)): 17%

N#Cc1ccc(S(=O)(=O)N2c3ccc(C(=O)NCc4ncc(C(F)(F)F)cc4Cl)cc3C3(CCS(=O)(=O)CC3)[C@H]2C2CC2)cc1 (single isomer, unassigned) [Example 8.2]
IC50 (human GnRH receptor): 3560 nM

N#Cc1cccc(S(=O)(=O)N2c3ccc(C(=O)NCc4ncc(C(F)(F)F)cc4Cl)cc3C3(CCS(=O)(=O)CC3)[C@H]2C2CC2)c1 (single isomer, unassigned) [Example 10.2]
IC50 (human GnRH receptor): 1970 nM

O=C(NCc1ncc(C(F)(F)F)cc1Cl)c1ccc2c(c1)C1(CCS(=O)(=O)CC1)C(C1CC1)N2S(=O)(=O)c1ccc(OC(F)F)cc1 (single isomer, unassigned) [Example 16.2]
IC50 (human GnRH receptor): 879 nM

NC(=O)c1ccc(S(=O)(=O)N2c3ccc(C(=O)NCc4ncc(C(F)(F)F)cc4Cl)cc3C3(CCS(=O)(=O)CC3)C2C2CC2)cc1 (single isomer, unassigned) [Example 17.1]
IC50 (human GnRH receptor): > 20000 nM

O=C(NCc1ncc(C(F)(F)F)cc1F)c1ccc2c(c1)C1(CCS(=O)(=O)CC1)C(C1CC1)N2S(=O)(=O)c1ccc(Cl)cc1 (single isomer, unassigned) [Example 18.1]
IC50 (human GnRH receptor): 31 nM

Reference: patent US20160052936A1, “SPIROINDOLINE DERIVATIVES FOR USE AS GONADOTROPIN-RELEASING HORMONE RECEPTOR ANTAGONISTS” (BAYER PHARMA AKTIENGESELLSCHAFT, priority 2013, published 2016)
